pIC50: −log10 of the molar value.

For data set [1], the target named is T1, Peroxiredoxin-1 (Homo sapiens, UniProt Q06830).
T1 sequence (Q06830 whole entry): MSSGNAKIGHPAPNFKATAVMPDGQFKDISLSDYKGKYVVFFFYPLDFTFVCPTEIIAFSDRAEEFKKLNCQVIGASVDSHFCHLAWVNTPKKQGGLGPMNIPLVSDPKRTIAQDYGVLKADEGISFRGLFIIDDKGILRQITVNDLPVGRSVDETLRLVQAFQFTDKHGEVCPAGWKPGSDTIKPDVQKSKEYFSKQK
In words: Inhibition of recombinant PRDX1 (unknown origin) using H2O2 as substrate preincubated for 0.5 hrs followed by substrate addition by TRX-TrxR-NADPH coupling assay.

Data set [2] deals with HCT-116. As to the kind of experiment: Inhibition of cell viability in human HCT-116 cells incubated for 72 hrs by Cell Titer Glo assay. The settings on record: HCT-116, 72 h. It is filed as functional, cell-based. (In general: Cellular ATP, detected with luciferase, serves as a proxy for viable cell number.)
Data set [3] has as its system SW-620. In words: Inhibition of cell viability in human SW620 cells incubated for 72 hrs by Cell Titer Glo assay. It is filed as functional, cell-based. The settings on record: SW-620, 72 h.
Data set [4] deals with SW-620. As to the kind of experiment: cells. Conditions: Homo sapiens, SW-620, 48 h, read-out: Activity.
Description: Induction of apoptosis in human SW620 cells assessed as viable cells at 1 uM incubated for 48 hrs by Annexin V-FITC/PI staining based flow cytometry (Rvb = 90.7 %)
A short description of data set [5]: Acute toxicity in C57BL/[…] 6J mouse assessed as pathological change in spleen at 20 mg/kg, ip measured for 2 weeks by H and E staining based analysis. It is filed as organism-based. Conditions: in vivo, 336 h.
The nature of data set [6]: Acute toxicity in C57BL/[…] 6J mouse assessed as pathological change in kidney at 20 mg/kg, ip measured for 2 weeks by H and E staining based analysis. It is filed as organism-based. The settings on record: in vivo, 336 h.
Data set [7] can be described thus: Acute toxicity in C57BL/[…] 6J mouse assessed as animal death at 20 mg/kg, ip measured for 2 days. It is filed as organism-based. Conditions: in vivo, 48 h, time 2 day.
Data set [8] relates to SW-620. In words: cells. The settings on record: Homo sapiens, SW-620, 48 h, read-out: Activity. This is another data set of the same source.
Description: Induction of apoptosis in human SW620 cells assessed as viable cells at 0.5 uM incubated for 48 hrs by Annexin V-FITC/PI staining based flow cytometry (Rvb = 90.7 %)
A short description of data set [9]: Toxicity in BALB/c nude mouse xenografted with human SW620 cells assessed as body weight loss at 2 mg/kg, ip qd for 7 days. The settings on record: in vivo, 168 h, time 7 day. It is filed as organism-based, SW-620. (In xenograft studies the graft and the host belong to different species.)
Data set [10] concerns SW-620. In words: Antitumor activity against human SW620 cells xenografted in BALB/c nude mouse at 2 mg/kg, ip qd for 16 days relative to control. It is filed as functional. Conditions: SW-620, 384 h, time 16 day, read-out: TGI.
A short description of data set [11]: Acute toxicity in C57BL/[…] 6J mouse assessed as pathological change in heart at 20 mg/kg, ip measured for 2 weeks by H and E staining based analysis. It is filed as organism-based. The settings on record: in vivo, 336 h.
Data set [12] can be described thus: Acute toxicity in C57BL/[…] 6J mouse assessed as pathological change in liver at 20 mg/kg, ip measured for 2 weeks by H and E staining based analysis. It is filed as organism-based. Conditions: in vivo, 336 h.
The test system of data set [13] is SW-620. As to the kind of experiment: cells. The settings on record: Homo sapiens, SW-620, 48 h, read-out: Activity. This is another data set of the same source.
Description: Induction of apoptosis in human SW620 cells assessed as viable cells at 2 uM incubated for 48 hrs by Annexin V-FITC/PI staining based flow cytometry (Rvb = 90.7 %)

Usually pIC50 stands for the IC50 on a negative log10 scale, so that one unit is a factor of ten. Turning to `COC(=O)[C@H](Cc1ccc(O)cc1)NC(=O)N[C@]1(C)CC[C@]2(C)CC[C@]3(C)C4=CC=C5C(=CC(=O)C(O)=C5C)[C@]4(C)CC[C@@]3(C)[C@@H]2C1`, the pIC50 is 6.38 in data set [1], 6.37 in [2] and 6.66 in data set [3].
Regarding `CC1=C(O)C(=O)C=C2C1=CC=C1[C@@]2(C)CC[C@@]2(C)[C@@H]3C[C@](C)(NC(=O)N[C@H](C)CO)CC[C@]3(C)CC[C@]12C`, the pIC50 in data set [1] was 6.28; in data set [2] it was 6.08; in data set [3] it was 6.22.
The like results for `CCOC(=O)C1(NC(=O)N[C@]2(C)CC[C@]3(C)CC[C@]4(C)C5=CC=C6C(=CC(=O)C(O)=C6C)[C@]5(C)CC[C@@]4(C)[C@@H]3C2)CC1` were, in that order, 6.44, 6.19 and 6.46.
Taken in the same sequence, the figures for `COC(=O)[C@H](CO)NC(=O)N[C@]1(C)CC[C@]2(C)CC[C@]3(C)C4=CC=C5C(=CC(=O)C(O)=C5C)[C@]4(C)CC[C@@]3(C)[C@@H]2C1` were 6.33, 6.13 and 6.19.
Taken in the same sequence, the figures for `COC(=O)[C@@H]1C[C@@H](O)CN1C(=O)N[C@]1(C)CC[C@]2(C)CC[C@]3(C)C4=CC=C5C(=CC(=O)C(O)=C5C)[C@]4(C)CC[C@@]3(C)[C@@H]2C1` were 6.44, 6.36 and 6.59.
As for `COC(=O)[C@@H](NC(=O)N[C@]1(C)CC[C@]2(C)CC[C@]3(C)C4=CC=C5C(=CC(=O)C(O)=C5C)[C@]4(C)CC[C@@]3(C)[C@@H]2C1)C(C)C`, the negative logarithm of the IC50 (pIC50) in data set [1] is 6.34; in data set [2], 6.47; in data set [3], 6.72.
The like results for `COC(=O)[C@H](C)NC(=O)N[C@]1(C)CC[C@]2(C)CC[C@]3(C)C4=CC=C5C(=CC(=O)C(O)=C5C)[C@]4(C)CC[C@@]3(C)[C@@H]2C1` were, in that order, 6.31, 6.10 and 6.48.
Taken in the same sequence, the figures for `CC1=C(O)C(=O)C=C2C1=CC=C1[C@@]2(C)CC[C@@]2(C)[C@@H]3C[C@](C)(NC(=O)N[C@@H](C)C(N)=O)CC[C@]3(C)CC[C@]12C` were 6.51, 6.25 and 6.38.
Taken in the same sequence, the figures for `CC1=C(O)C(=O)C=C2C1=CC=C1[C@@]2(C)CC[C@@]2(C)[C@@H]3C[C@](C)(NC(=O)N[C@H]4CCOC4=O)CC[C@]3(C)CC[C@]12C` were 6.48, 6.17 and 6.32.
Take `CC1=C(O)C(=O)C=C2C1=CC=C1[C@@]2(C)CC[C@@]2(C)[C@@H]3C[C@](C)(NC(=O)N[C@H]4C[C@H](CO)[C@H](O)C4)CC[C@]3(C)CC[C@]12C`: the pIC50 in data set [1] is 6.34; in [2], 5.51; in [3], 5.68.
The like results for `COC(=O)[C@H](Cc1c[nH]c2ccccc12)NC(=O)N[C@]1(C)CC[C@]2(C)CC[C@]3(C)C4=CC=C5C(=CC(=O)C(O)=C5C)[C@]4(C)CC[C@@]3(C)[C@@H]2C1` were, in that order, 6.47, 6.25 and 6.51.
The like results for `COC(=O)CNC(=O)N[C@]1(C)CC[C@]2(C)CC[C@]3(C)C4=CC=C5C(=CC(=O)C(O)=C5C)[C@]4(C)CC[C@@]3(C)[C@@H]2C1` were, in that order, 6.19, 6.08 and 6.31.
The like results for `CC1=C(O)C(=O)C=C2C1=CC=C1[C@@]2(C)CC[C@@]2(C)[C@@H]3C[C@](C)(NC(=O)NC(CO)CO)CC[C@]3(C)CC[C@]12C` were, in that order, 6.35, 5.57 and 5.72.
On to `COC(=O)[C@H](CCSC)NC(=O)N[C@]1(C)CC[C@]2(C)CC[C@]3(C)C4=CC=C5C(=CC(=O)C(O)=C5C)[C@]4(C)CC[C@@]3(C)[C@@H]2C1`, for which the pIC50 is 6.27 in data set [1], 5.74 in data set [2] and 5.85 in [3].
Taken in the same sequence, the figures for `COC(=O)[C@@H]1CCCN1C(=O)N[C@]1(C)CC[C@]2(C)CC[C@]3(C)C4=CC=C5C(=CC(=O)C(O)=C5C)[C@]4(C)CC[C@@]3(C)[C@@H]2C1` were 6.33, 6.64 and 6.55.
Regarding `CC1=C(O)C(=O)C=C2C1=CC=C1[C@@]2(C)CC[C@@]2(C)[C@@H]3C[C@](C)(C(=O)O)CC[C@]3(C)CC[C@]12C` [CELASTROL], the viability at 1 µM in [4] was 84.2%. Besides, the Activity entry in data set [5], in data set [6], in [7], in [9], in [11] and in data set [12] was “Toxic” in each case. Also, the pIC50 in data set [2] was 5.85; in data set [3], 6.17. For the same compound, the viability at 0.5 µM in data set [8] worked out at 87.4%. The inhibition in vivo at 2 mg/kg in data set [10] was found to be 28%. The viability at 2 µM in data set [13] turned out to be 27.4%.
Take `COC(=O)C1(NC(=O)N[C@]2(C)CC[C@]3(C)CC[C@]4(C)C5=CC=C6C(=CC(=O)C(O)=C6C)[C@]5(C)CC[C@@]4(C)[C@@H]3C2)COC1`: the negative logarithm of the IC50 (pIC50) in data set [1] is 6.42; in data set [2], 6.10; in [3], 6.41.
Taken in the same sequence, the figures for `CC1=C(O)C(=O)C=C2C1=CC=C1[C@@]2(C)CC[C@@]2(C)[C@@H]3C[C@](C)(NC(=O)NC4(C(=O)O)COC4)CC[C@]3(C)CC[C@]12C` were under 4.70, under 4.70 and under 4.70.
On to `COC(=O)CC[C@H](NC(=O)N[C@]1(C)CC[C@]2(C)CC[C@]3(C)C4=CC=C5C(=CC(=O)C(O)=C5C)[C@]4(C)CC[C@@]3(C)[C@@H]2C1)C(=O)OC`, for which the pIC50 was 6.43 in [1], 6.24 in [2] and 6.46 in [3].
The like results for `CC1=C(O)C(=O)C=C2C1=CC=C1[C@@]2(C)CC[C@@]2(C)[C@@H]3C[C@](C)(NC(=O)NC(CO)(CO)CO)CC[C@]3(C)CC[C@]12C` were, in that order, 6.30, 5.60 and 5.96.
Taken in the same sequence, the figures for `COC(=O)[C@@H](NC(=O)N[C@]1(C)CC[C@]2(C)CC[C@]3(C)C4=CC=C5C(=CC(=O)C(O)=C5C)[C@]4(C)CC[C@@]3(C)[C@@H]2C1)[C@@H](C)O` were 6.31, 6.10 and 6.48.
Taken in the same sequence, the figures for `COC(=O)[C@H](CCCCNC(=O)OC(C)(C)C)NC(=O)N[C@]1(C)CC[C@]2(C)CC[C@]3(C)C4=CC=C5C(=CC(=O)C(O)=C5C)[C@]4(C)CC[C@@]3(C)[C@@H]2C1` were 6.40, 6.39 and 6.48.
Regarding `CC1=C(O)C(=O)C=C2C1=CC=C1[C@@]2(C)CC[C@@]2(C)[C@@H]3C[C@](C)(NC(=O)NCCOCCO)CC[C@]3(C)CC[C@]12C`, the pIC50 in [1] is 6.39; in data set [2] it was 6.00; in [3] it was 6.10.

The record behind these values is ChEMBL document CHEMBL5543168, “Discovery of Urea Derivatives of Celastrol as Selective Peroxiredoxin 1 Inhibitors against Colorectal Cancer Cells” (J Med Chem, 2024).
